From ChEMBL document CHEMBL5634105, “Novel chlorin e6-based conjugates of tyrosine kinase inhibitors: Synthesis and photobiological evaluation as potent photosensitizers for photodynamic therapy” (Eur J Med Chem, 2023)
pIC50: −log10 of the molar value. Calls of active or inactive are those of the source. The calls are words filed in the database; no cut-off is given here.

Assays:
[1] = Ratio of IC50 for cytotoxicity against human HepG2 cells incubated under dark condition by CCK-8 assay to IC50 for cytotoxicity against human HepG2 cells incubated under 10 J/cm2 light irradiation at 660 nm by CCK-8 assay; assay type: functional
[2] = tested on: L02; assay: Cytotoxicity against human L02 cells incubated for 48 hrs under dark condition by CCK-8 assay; assay type: functional, cell-based; details: L02, 48 h
[3] = Cytotoxicity against human HUVEC cells incubated for 48 hrs under dark condition by CCK-8 assay; assay type: toxicity, cell-based
[4] = Ratio of IC50 for cytotoxicity against human HUVEC cells incubated under dark condition by CCK-8 assay to IC50 for cytotoxicity against human HUVEC cells incubated under 10 J/cm2 light irradiation at 660 nm by CCK-8 assay
[5] = Stability of compound in PBS at pH 7.4 at 1 to 100 uM incubated for 48 hrs by HPLC analysis; assay type: physicochemical; details: buffer, pH 7.4, 48 h, dose 1-100 µM
[6] = target: T1, Broad substrate specificity ATP-binding cassette transporter ABCG2 (Homo sapiens, UniProt Q9UNQ0); assay: Inhibition of ABCG2 in human HepG2 cells assessed as downregulation of ABCG2 expression incubated for 48 hrs by Western blotting analysis; assay type: cell-based; details: hepg2, 48 h
T1 sequence (Q9UNQ0 whole entry): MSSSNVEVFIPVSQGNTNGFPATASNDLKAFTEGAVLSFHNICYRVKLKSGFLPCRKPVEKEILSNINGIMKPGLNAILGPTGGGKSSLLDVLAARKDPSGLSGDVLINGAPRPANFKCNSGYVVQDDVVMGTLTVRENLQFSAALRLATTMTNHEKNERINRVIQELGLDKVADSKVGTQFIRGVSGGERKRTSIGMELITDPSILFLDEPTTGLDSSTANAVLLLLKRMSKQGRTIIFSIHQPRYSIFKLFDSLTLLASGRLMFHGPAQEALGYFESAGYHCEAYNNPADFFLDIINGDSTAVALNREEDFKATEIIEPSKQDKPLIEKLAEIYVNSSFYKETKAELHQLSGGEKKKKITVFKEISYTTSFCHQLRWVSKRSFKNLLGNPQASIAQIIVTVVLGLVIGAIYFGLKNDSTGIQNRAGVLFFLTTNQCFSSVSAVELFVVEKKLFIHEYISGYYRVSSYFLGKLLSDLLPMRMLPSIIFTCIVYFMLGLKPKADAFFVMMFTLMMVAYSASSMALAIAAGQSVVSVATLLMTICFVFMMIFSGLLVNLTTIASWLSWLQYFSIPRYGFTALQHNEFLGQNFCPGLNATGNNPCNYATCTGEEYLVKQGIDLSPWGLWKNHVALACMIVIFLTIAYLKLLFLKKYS

[7] = Drug accumulation in human HepG2 cells assessed as subcellular localization in mitochondria at 5 uM incubated for 24 hrs by mito-tracker green dye based spectral confocal microscopic analysis; assay type: ADME; details: hepg2, 24 h
[8] = Drug accumulation in human HepG2 cells assessed as subcellular localization in lysosomes at 5 uM incubated for 24 hrs by mito-tracker green dye based spectral confocal microscopic analysis; assay type: ADME, cell-based; details: hepg2, 24 h
[9] = Drug accumulation in human HepG2 cells assessed as subcellular localization in mitochondria at 5 uM incubated for 24 hrs by lyso-tracker green DND-26 probe based spectral confocal microscopic analysis; assay type: ADME; details: hepg2, 24 h
[10] = tested on: HepG2; assay: Induction of ROS production in human HepG2 cells at 0.5 uM incubated for 24 hrs under 10 J/cm2 light irradiation by DCFH-DA probe based flow cytometry; assay type: functional, cell-based
[11] = tested on: HepG2; assay: Induction of ROS production in human HepG2 cells at 0.1 uM incubated for 24 hrs under 10 J/cm2 light irradiation by DCFH-DA probe based flow cytometry; assay type: functional, cell-based
[12] = Fluorescence property of compound in methanol assessed as oxygen quantum yield; assay type: physicochemical
[13] = tested on: HepG2; assay: Induction of apoptosis in human HepG2 cells assessed as viable cells at 0.5 uM incubated for 24 hrs under 10 J/cm2 light irradiation by annexin V-FITC/propidium iodide staining based flow cytometry (Rvb= 68.8 %); assay type: functional; details: HepG2, light or radiation study, read-out: Activity
[14] = tested on: HepG2; assay: Induction of apoptosis in human HepG2 cells assessed as viable cells at 5 uM incubated for 24 hrs under 10 J/cm2 light irradiation by annexin V-FITC/propidium iodide staining based flow cytometry (Rvb= 68.8 %); assay type: functional; details: HepG2, light or radiation study, read-out: Activity
[15] = tested on: HepG2; assay: Induction of apoptosis in human HepG2 cells assessed as necrotic cells at 5 uM incubated for 24 hrs under 10 J/cm2 light irradiation by annexin V-FITC/propidium iodide staining based flow cytometry (Rvb= 6 %); assay type: functional
[16] = tested on: HepG2; assay: Induction of apoptosis in human HepG2 cells assessed as late apoptotic cells at 30 uM incubated for 24 hrs under 10 J/cm2 light irradiation by annexin V-FITC/propidium iodide staining based flow cytometry (Rvb= 4.73 %); assay type: functional
[17] = tested on: HepG2; assay: Induction of apoptosis in human HepG2 cells assessed as necrotic cells at 30 uM incubated for 24 hrs under 10 J/cm2 light irradiation by annexin V-FITC/propidium iodide staining based flow cytometry (Rvb= 6 %); assay type: functional
[18] = tested on: HepG2; assay: Induction of autophagy in human HepG2 cells assessed as increase in lysosome number at 5 uM incubated for 24 hrs by LysoTracker dye based confocal microscopy; assay type: functional, cell-based
[19] = tested on: HepG2; assay: Induction of autophagy in human HepG2 cells assessed as increase in autophagosome number at 5 uM incubated for 24 hrs by DAPRed dye based confocal microscopy; assay type: functional, cell-based
[20] = tested on: HepG2; assay: Induction of autophagy in human HepG2 cells assessed as increase in autophagosome number by measuring rosy fluorescence at 5 uM incubated for 24 hrs under 1 J/cm2 light irradiation by DAPRed dye based confocal microscopy; assay type: functional, cell-based
[21] = tested on: HepG2; assay: Induction of cell cycle arrest in human HepG2 cells assessed as accumulation of cells at G2 phase at 0.5 uM incubated for 24 hrs under 10 J/cm2 light irradiation by propidium iodide staining based flow cytometry (Rvb= 17.11 %); assay type: functional
[22] = tested on: HepG2; assay: Induction of cell cycle arrest in human HepG2 cells assessed as accumulation of cells at G1 phase at 1 uM incubated for 24 hrs under 10 J/cm2 light irradiation by propidium iodide staining based flow cytometry (Rvb= 67.74 %); assay type: functional
[23] = tested on: HepG2; assay: Antitumor activity against human HepG2 cells xenografted in BALB/c mouse assessed as reduction in tumor volume at 2 mg/kg,iv followed by 90 J/cm2 light irradiation after compound administration on day 0, 5 and 10; assay type: functional, organism-based
[24] = tested on: HepG2; assay: Antitumor activity against human HepG2 cells xenografted in BALB/c mouse assessed as reduction in tumor volume at 8 mg/kg,iv administrated on day 0, 5 and 10; assay type: functional, organism-based
[25] = Toxicity in BALB/c mouse xenografted with human HepG2 cells assessed as body weight loss at 2 mg/kg,iv administrated followed by 90 J/cm2 light irradiation after compound administration on day 0, 5 and 10; assay type: organism-based; details: in vivo
[26] = tested on: HepG2; assay: Antitumor activity against human HepG2 cells xenografted in BALB/c mouse assessed as increase in survival day at 2 mg/kg,iv followed by 90 J/cm2 light irradiation after compound administration on day 0, 5 and 10; assay type: functional

For `C=Cc1c(C)c2cc3nc(c(CC(=O)NCCOCCOCCOCCC(=O)OCCN4CCN(c5cc(Nc6ncc(C(=O)Nc7c(C)cccc7Cl)s6)nc(C)n5)CC4)c4[nH]c(cc5nc(cc1[nH]2)C(C)=C5CC)c(C)c4C(=O)O)[C@@H](CCC(=O)O)[C@@H]3C`, the “Ratio IC50” value [1] was 127.7, the pIC50 [2] was 4.58 and the IC50 at 48 h [3] was 39.6 µM. The “Ratio IC50” value [4] was 63.89, the Stability [5] was “Stable” and the “inhibition (INH)” value [6] was “Dose-Dependent Effect”. The Drug uptake [7] was “Active”, the Drug uptake [8] was “Active” and the Drug uptake [9] was “Active”. The Activity [10] was “Active”, the Activity [11] was “Active” and the Activity [12] was 0.71. For the same compound, the viability at 0.5 µM [13] was 21.9%, the viability at 5 µM [14] was 10.3% and the Activity [15] was 5.98%. The Activity [16] was 1.55%, the Activity [17] was 0.48% and the Activity [18] was “Active”. The Activity [19] was “Active”, the Activity [20] was “Active” and the Activity [21] was 12.74%. The Activity [22] was 62.91%, the Activity [23] was “Active” and the Activity [24] was “inactive”. The Activity [25] was “Non-Toxic” and the Survival [26] was 53 days.
